What is called Ki is the equilibrium dissociation constant of an inhibitor or competing ligand from its target.

The assay concerns the target T1, ENPP1 (Homo sapiens, UniProt P22413).
T1 sequence (P22413 1-925): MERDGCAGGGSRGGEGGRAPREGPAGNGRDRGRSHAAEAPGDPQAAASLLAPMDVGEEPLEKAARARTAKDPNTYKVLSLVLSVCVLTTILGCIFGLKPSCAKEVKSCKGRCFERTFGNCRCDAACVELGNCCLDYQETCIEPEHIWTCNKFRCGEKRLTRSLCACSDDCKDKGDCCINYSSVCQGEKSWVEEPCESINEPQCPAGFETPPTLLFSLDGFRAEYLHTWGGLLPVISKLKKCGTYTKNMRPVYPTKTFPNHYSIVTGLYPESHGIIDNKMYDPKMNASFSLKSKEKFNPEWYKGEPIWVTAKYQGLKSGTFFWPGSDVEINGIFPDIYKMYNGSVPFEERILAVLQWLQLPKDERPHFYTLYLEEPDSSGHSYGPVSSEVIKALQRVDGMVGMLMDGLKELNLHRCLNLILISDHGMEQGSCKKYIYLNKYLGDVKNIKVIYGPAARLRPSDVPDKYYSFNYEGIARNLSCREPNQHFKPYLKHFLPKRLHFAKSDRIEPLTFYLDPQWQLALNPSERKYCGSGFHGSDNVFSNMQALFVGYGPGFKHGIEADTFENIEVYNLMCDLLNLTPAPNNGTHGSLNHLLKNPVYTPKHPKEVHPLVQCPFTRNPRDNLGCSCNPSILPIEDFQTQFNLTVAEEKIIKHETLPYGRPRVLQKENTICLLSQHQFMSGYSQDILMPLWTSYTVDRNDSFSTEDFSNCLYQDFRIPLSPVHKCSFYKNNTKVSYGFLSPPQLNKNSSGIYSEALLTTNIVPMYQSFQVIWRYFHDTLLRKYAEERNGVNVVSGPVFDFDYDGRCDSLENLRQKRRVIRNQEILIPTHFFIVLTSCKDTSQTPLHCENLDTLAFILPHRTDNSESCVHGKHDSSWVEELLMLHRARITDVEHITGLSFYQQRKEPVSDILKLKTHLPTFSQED
As to the kind of experiment: Capillary electrophoresis-based NPP assay with ATP as a substrate (ENPP1 inhibition, Ki). In kind it is biochemical. To be noted: Ki from IC50 by Cheng-Prusoff, 400 μM ATP. Here is the method:
Here, a Capillary Electrophoresis based method was used to determine the IC50 values for ENPP1 Inhibitors for ENNP1 protein.
The inhibitors synthesized were assessed for ENPP1 inhibitory potency against the natural substrate ATP. The enzyme inhibition assays were performed in 10 mM 2-(N-cyclohexylamino)-ethanesulfonic acid (CHES) buffer (pH 10.0) including 1 mM MgCl2, 2 mM CaCl2), and 400 μM of ATP, with different inhibitor concentrations. The reaction mixture was incubated with 20 ng human NPP1 at 37° C. for 30 min in a final volume of 100 μL, and the reactions were stopped by heating at 90° C. for 3 min. Finally, the reaction mixtures were directly measured by capillary electrophoresis (CE). The CE instrumentation and operating conditions were as follows: P/ACE MDQ capillary electrophoresis system (Beckman Instruments, Fullerton, Calif., USA) with a DAD detection system, polyacrylamide-coated capillaries of 40 cm effective length×[…] (id) obtained from CS Chromatographie GmbH (Langerwehe, Germany), 50 mM phosphate buffer (pH 6.5) as running buffer, electrokinetic injection (−6 kV, 60 s), separation voltage of −15 kV. The amounts of AMP produced were measured at 260 nm. Data collection and peak area analysis were performed by 32 Karat software obtained from Beckman Coulter (Fullerton, Calif., USA).
The IC50 values of test compounds were calculated by plotting data in the program Prism 5.0, and the Ki values were calculated from the IC50 values with the Cheng-Prusoff equation (Tables 2-4).

Regarding `CCOc1ccc(NC(=O)CSc2nc(N)nc3nc[nH]c23)cc1OCC` [Compound 84], the Ki (bin of Table 4) is ≥ 1000 nM.

For `Nc1nc(SCC(=O)Nc2ccc3nccnc3c2)c2[nH]cnc2n1` [Compound 185], under “bin of Table 2”, the Ki was ≤ 100 nM.

Turning to `Nc1nc(SCC(=O)Nc2ccc3c(c2)OC(F)(F)O3)c2[nH]cnc2n1` [Compound 90], where the note is “bin of Table 4”, the Ki was ≥ 1000 nM. In the case of `Nc1nc(SCC(=S)Nc2ccc(O)c(C(=O)O)c2)c2[nH]cnc2n1` [Compound 408], the Ki (bin of Table 2) is ≤ 100 nM. Consider `COc1ccc(NC(=O)CSc2nc3ccncc3o2)cc1OC` [Compound 22], for which the Ki (bin of Table 4) is ≥ 1000 nM. For `COc1ccnc(NC(=O)CSc2nc(N)nc3nc[nH]c23)c1` [Compound 109], for the setting “bin of Table 2”, the Ki is ≤ 100 nM.

Take `COc1nc(NC(=O)[C@@H](Cc2ccccc2)Sc2nc(N)nc3nc[nH]c23)ncc1Cl` [Compound 551]: the inhibition constant (Ki) (bin of Table 2) is ≤ 100 nM. On the same count and under the same terms, under `CCOc1nc(NC(=O)[C@@H](Sc2nc(N)nc3nc[nH]c23)C(C)C)ncc1F` [Compound 679] stands ≤ 100 nM. With `COc1ccc(NC(=O)Cn2cnc3cnccc32)cc1OC` [Compound 11], under “bin of Table 4”, the Ki was ≥ 1000 nM. In the case of `CC[C@H](Sc1nc(N)nc2nc[nH]c12)C(=O)Nc1ccc(O)c(C(=O)O)c1` [Compound 267], the Ki (bin of Table 2) is ≤ 100 nM.

On to `COc1ccc(NC(=O)CSc2nc(N)nc3ncn(C)c23)cc1OC` [Compound 98], for which, for the setting “bin of Table 4”, the inhibition constant (Ki) was ≥ 1000 nM. Turning to `CCOc1nc(NC(=O)[C@@H](CC)Sc2nc(N)nc3nc[nH]c23)ncc1Br` [Compound 712], the inhibition constant Ki (bin of Table 2) was ≤ 100 nM.

Regarding `COc1ccc(NC(=O)CSc2nc(N)nc3nc[nH]c23)cc1` [Compound 107], the Ki (bin of Table 4) is ≥ 1000 nM. In the case of `COc1ccnc(NC(=O)[C@@H](Cc2ccccc2)Sc2nc(N)nc3nc[nH]c23)n1` [Compound 516], the Ki (bin of Table 2) was ≤ 100 nM. On the same count and under the same terms, under `COc1ccnc(NC(=O)CSc2nc(N)nc3nc[nH]c23)n1` [Compound 201] stands ≤ 100 nM; under `COc1ccnc(NC(=O)[C@H](C)Sc2nc(N)nc3nc[nH]c23)n1` [Compound 487], ≤ 100 nM. For the compound `CCC(Sc1nc(N)nc2nc[nH]c12)C(=O)Nc1ccc(O)c(C(=O)O)c1` (centres unmarked) [Compound 249], the inhibition constant (Ki) (bin of Table 2) was ≤ 100 nM. Still for that read-out and setting: under `CCOc1nc(NC(=O)[C@H](CC)Sc2nc(N)nc3nc[nH]c23)ncc1Br` [Compound 678] stands ≤ 100 nM; under `COc1nc(NC(=O)C(C)(C)Sc2nc(N)nc3nc[nH]c23)ncc1F` [Compound 529], ≤ 100 nM; under `COc1nc(NC(=O)C2(Sc3nc(N)nc4nc[nH]c34)CCC2)ncc1Br` [Compound 558], ≤ 100 nM. The same measure, in the same setting: the value for `Nc1nc(SCC(=O)Nc2ccc(O)c(Br)c2)c2[nH]cnc2n1` [Compound 194] was ≤ 100 nM. Still for that read-out and setting: under `COc1ccnc(NC(=O)[C@H](CCc2ccccc2)Sc2nc(N)nc3nc[nH]c23)n1` [Compound 506] stands ≤ 100 nM. Consider `CC(=O)c1cc(NC(=O)CSc2nc(N)nc3nc[nH]c23)ccc1O` [Compound 199], for which the inhibitory constant (Ki) (bin of Table 2) was ≤ 100 nM. Still for that read-out and setting: the value for `COc1ccc(C(=O)NCCSc2nc(N)nc3nc[nH]c23)cc1OC` [Compound 148, N-(2-((2-amino-7H-purin-6-yl)thio)ethyl)-3,4-dimethoxybenzamide] was ≤ 100 nM; that for `CC[C@@H](Sc1nc(N)nc2nc[nH]c12)C(=O)Nc1ncc(Cl)c(OC)n1` [Compound 608] was ≤ 100 nM. For the compound `CC(C)(Sc1nc(N)nc2nc[nH]c12)C(=O)Nc1ccc(O)c(C(=O)O)c1` [Compound 251], the Ki (bin of Table 4) is ≥ 1000 nM.

Regarding `COc1ccc(NC(=O)[C@@H](C)Sc2nc(N)nc3nc[nH]c23)nc1OC` [Compound 490], the Ki (bin of Table 2) was ≤ 100 nM.

`COc1ccc(NC(=O)Cn2nnc3ncccc32)cc1OC` [Compound 35]: under “bin of Table 4”, the inhibition constant (Ki) was ≥ 1000 nM. Consider `COc1ccnc(NC(=O)[C@@H](C)Sc2nc(N)nc3nc[nH]c23)n1` [Compound 486], for which the Ki (bin of Table 2) was ≤ 100 nM. The same measure, in the same setting: under `COc1ccnc(NC(=O)[C@@H](Sc2nc(N)nc3nc[nH]c23)C(C)C)n1` [Compound 510] stands ≤ 100 nM.

On to `COc1nc(NC(=O)[C@@H](Sc2nc(N)nc3nc[nH]c23)C(C)C)ncc1Br` [Compound 515], for which the Ki (bin of Table 2) is ≤ 100 nM. Still for that read-out and setting: the value for `Nc1nc(SCC(=O)Nc2ccc3ncccc3c2)c2[nH]cnc2n1` [Compound 184] was ≤ 100 nM. As for `COc1cc2ncc(Nc3cc(S(N)(=O)=O)ccc3C)nc2cc1OC` [Compound 8], the inhibition constant Ki (bin of Table 4) is ≥ 1000 nM. On to `COc1ccc(NC(=O)CSc2nc(N)nc3nc[nH]c23)cc1Cl` [Compound 128], for which the inhibitory constant (Ki) (bin of Table 2) is ≤ 100 nM.

Turning to `CC[C@@H](Sc1nc(N)nc2nc[nH]c12)C(=O)Nc1cc(OC)ccn1` [Compound 471], for the setting “bin of Table 2”, the Ki is ≤ 100 nM.

`COc1ccc(NC(=O)[C@H](C)Sc2nc(N)nc3nc[nH]c23)nc1OC` [Compound 491]: the Ki (bin of Table 2) is ≤ 100 nM.

As for `CC(C)[C@H](Sc1nc(N)nc2nc[nH]c12)C(=O)Nc1ccc(O)c(C(=O)O)c1` [Compound 269], the inhibition constant Ki (bin of Table 2) was ≤ 100 nM.

As to `COc1ccc(NC(=O)CSc2nc(N)nc3nc[nH]c23)nc1OC` [Compound 160], the Ki (bin of Table 2) was ≤ 100 nM. Regarding `Nc1nc(SCC(=O)Nc2ccc(Cl)c(O)c2)c2[nH]cnc2n1` [Compound 207], the Ki (bin of Table 2) was ≤ 100 nM. Consider `COc1cc(NC(=O)[C@H](CC(C)C)Sc2nc(N)nc3nc[nH]c23)ccc1O` [Compound 272], for which the Ki (bin of Table 2) was ≤ 100 nM. Same read-out and setting: the value for `COc1ccnc(NC(=O)[C@H](Cc2ccccc2)Sc2nc(N)nc3nc[nH]c23)n1` [Compound 517] was ≤ 100 nM; that for `Cc1nc2cc(NC(=O)CSc3nc(N)nc4nc[nH]c34)ccc2s1` [Compound 182] was ≤ 100 nM; that for `COc1cc(NC(=O)[C@@H](Sc2nc(N)nc3nc[nH]c23)C(C)C)ccc1O` [Compound 270] was ≤ 100 nM. For `COc1cc2ncc(SCC(=O)Nc3cc(S(N)(=O)=O)ccc3C)nc2cc1OC` [Compound 36], the Ki (bin of Table 4) was ≥ 1000 nM. As for `Cc1ccc(S(N)(=O)=O)cc1NC(=O)Cn1cnc2ncnc(N)c21` [Compound 30], the inhibition constant Ki (bin of Table 4) was ≥ 1000 nM. As to `COc1ccnc(NC(=O)[C@@H](CCc2ccccc2)Sc2nc(N)nc3nc[nH]c23)n1` [Compound 507], for the setting “bin of Table 2”, the Ki is ≤ 100 nM. In the case of `COc1cc(NC(=O)[C@H](Sc2nc(N)nc3nc[nH]c23)c2ccccc2)ccc1O` [Compound 329], the Ki (bin of Table 2) is ≤ 100 nM. For the compound `Nc1nc(SCC(=O)NCc2ccccc2)c2[nH]cnc2n1` [Compound 103], for the setting “bin of Table 4”, the Ki is ≥ 1000 nM. On to `COc1nc(NC(=O)[C@H](Cc2ccccc2)Sc2nc(N)nc3nc[nH]c23)ncc1Br` [Compound 555], for which, for the setting “bin of Table 2”, the Ki is ≤ 100 nM.

For the compound `CC[C@@H](Sc1nc(N)nc2nc[nH]c12)C(=O)Nc1nccc(OC)n1` [Compound 389], the Ki (bin of Table 2) was ≤ 100 nM. As to `Nc1nc(SCC(=O)Nc2ccc3c(c2)OCO3)c2[nH]cnc2n1` [Compound 78], the Ki (bin of Table 2) is ≤ 100 nM. The same measure, in the same setting: under `CC[C@H](Sc1nc(N)nc2nc[nH]c12)C(=O)Nc1nccc(OC)n1` [Compound 435] stands ≤ 100 nM; under `CC[C@@H](Sc1nc(N)nc2nc[nH]c12)C(=O)Nc1nc(Cl)cc(OC)n1` [Compound 496], ≤ 100 nM; under `CC(C)Oc1ccnc(NC(=O)C(C)(C)Sc2nc(N)nc3nc[nH]c23)n1` [Compound 534], ≤ 100 nM.

`COc1ccc(NC(=O)CSc2nc(N)nc3nc[nH]c23)cc1C(=O)O` [Compound 144]: the inhibition constant Ki (bin of Table 4) is ≥ 1000 nM. On to `COc1ccnc(NC(=O)C(C)(C)Sc2nc(N)nc3nc[nH]c23)n1` [Compound 504], for which the Ki (bin of Table 2) was ≤ 100 nM.

Source of the values: patent US20230002387A1, “2-AMINO-S6-SUBSTITUTED THIOPURINE COMPOUNDS AS INHIBITORS OF THE ENPP1 PROTEIN” (ATEN PORUS LIFESCIENCES PVT. LTD., priority 2019, published 2023).
